This note sets out measurements from paper PMC6028563, “Probing Substituents in the 1- and 3-Position: Tetrahydropyrazino-Annelated Water-Soluble Xanthine Derivatives as Multi-Target Drugs With Potent Adenosine Receptor Antagonistic Activity” (Frontiers in Chemistry, 2018).

One test concerns the target T1, human A1 AR (Homo sapiens, UniProt P30542).
T1 construct: expressed in transfected cells; host or cells: CHO cells
T1 sequence (P30542 1-326): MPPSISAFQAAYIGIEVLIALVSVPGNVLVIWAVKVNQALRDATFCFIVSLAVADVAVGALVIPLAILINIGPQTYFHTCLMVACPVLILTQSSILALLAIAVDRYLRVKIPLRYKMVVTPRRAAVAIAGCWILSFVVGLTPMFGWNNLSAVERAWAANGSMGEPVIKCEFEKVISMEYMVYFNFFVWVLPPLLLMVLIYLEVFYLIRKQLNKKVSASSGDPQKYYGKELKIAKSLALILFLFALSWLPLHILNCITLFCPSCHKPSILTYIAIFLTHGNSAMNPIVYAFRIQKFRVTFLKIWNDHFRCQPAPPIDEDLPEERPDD
Description: Radioligand binding assay at human A1 AR vs. [^3H]CCPA. As to conditions: for Ki: human (h), CHO cell membranes, n = 3; for selectivity for the human A1 vs. the human A2A AR: ratio of Ki values, human receptors. Put shortly:
(§1)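 Membranes of CHO cells recombinantly expressing single human AR subtypes served for human assays, A2B competed against [^3H]PSB-603. Native rat tissue was used otherwise: cortical membranes with [^3H]CCPA for A1, striatal membranes with [^3H]MSX-2 for A2A.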

The next test has as its target T2, rat A1 AR (Rattus norvegicus, UniProt P25099).
T2 construct: A1 ARs of rat brain cortical membrane; from tissue; host or cells: rat brain cortex membranes
T2 sequence (P25099 1-326): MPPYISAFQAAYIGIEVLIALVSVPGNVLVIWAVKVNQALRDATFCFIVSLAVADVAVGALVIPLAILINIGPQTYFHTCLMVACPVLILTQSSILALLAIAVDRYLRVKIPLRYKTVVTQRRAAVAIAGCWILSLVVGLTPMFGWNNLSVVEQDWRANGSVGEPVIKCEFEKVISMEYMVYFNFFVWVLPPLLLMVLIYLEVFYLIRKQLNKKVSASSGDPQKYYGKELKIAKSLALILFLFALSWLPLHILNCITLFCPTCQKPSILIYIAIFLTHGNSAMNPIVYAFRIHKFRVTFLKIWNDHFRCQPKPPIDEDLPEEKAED
As to the kind of experiment: Radioligand binding assay at rat A1 AR (rat brain cortex) vs. [^3H]CCPA. To be noted: rat (r); rat brain cortex; n = 3. The gist of the method:
as §1

In a further test the target is T3, rat A2A AR (Rattus norvegicus, UniProt P30543).
T3 construct: A2A ARs of rat brain striatal membrane preparations; from tissue; host or cells: rat brain striatum membranes
T3 sequence (P30543 whole entry): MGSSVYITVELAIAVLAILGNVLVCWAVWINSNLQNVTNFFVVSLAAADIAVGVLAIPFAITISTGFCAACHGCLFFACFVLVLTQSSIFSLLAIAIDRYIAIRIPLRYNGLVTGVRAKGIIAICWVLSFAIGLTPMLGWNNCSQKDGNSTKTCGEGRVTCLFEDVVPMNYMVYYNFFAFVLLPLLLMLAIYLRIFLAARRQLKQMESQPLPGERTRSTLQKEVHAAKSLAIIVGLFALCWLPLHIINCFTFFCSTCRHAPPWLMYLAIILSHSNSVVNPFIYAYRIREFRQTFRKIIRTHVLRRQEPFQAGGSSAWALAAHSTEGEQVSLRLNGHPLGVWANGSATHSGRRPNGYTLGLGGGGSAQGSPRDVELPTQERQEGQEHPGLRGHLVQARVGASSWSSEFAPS
Description: Radioligand binding assay at rat A2A AR (rat brain striatum) vs. [^3H]MSX-2. To be noted: rat (r); for Ki: rat brain striatum, n = 3, read-out: Ki ± SEM, A2A vs. [^3H]MSX-2; for % inhibition of radioligand binding at indicated concentration, A2A vs. [^3H]MSX-2: at 1,000 nM. The gist of the method: as §1

A further test addresses T4, recombinant human MAO-B (Homo sapiens, UniProt P27338).
T4 construct: purchased Sigma-Aldrich M7441; host or cells: baculovirus-infected insect cells
T4 sequence (P27338 1-520): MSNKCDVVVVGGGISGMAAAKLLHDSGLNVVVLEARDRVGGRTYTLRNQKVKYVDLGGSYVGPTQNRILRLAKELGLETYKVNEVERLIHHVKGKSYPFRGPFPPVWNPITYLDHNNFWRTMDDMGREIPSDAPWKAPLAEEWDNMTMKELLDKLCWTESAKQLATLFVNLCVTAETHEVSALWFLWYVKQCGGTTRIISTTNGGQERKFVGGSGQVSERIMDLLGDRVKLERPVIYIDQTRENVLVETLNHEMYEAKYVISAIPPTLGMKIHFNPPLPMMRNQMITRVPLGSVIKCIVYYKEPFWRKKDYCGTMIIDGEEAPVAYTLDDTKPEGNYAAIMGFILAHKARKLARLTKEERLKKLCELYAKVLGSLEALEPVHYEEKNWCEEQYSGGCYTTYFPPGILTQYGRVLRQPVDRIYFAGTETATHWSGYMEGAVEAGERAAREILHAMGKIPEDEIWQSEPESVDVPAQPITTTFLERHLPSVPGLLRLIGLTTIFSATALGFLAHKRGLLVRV
As to the kind of experiment: Monoamine oxidase assay (Amplex Red), MAO-B. To be noted: for inhibition at 10 µM: at 10,000 nM (10 μM), read-out: % inhibition at indicated concentration, Human MAO-B; for IC50: n = 3, read-out: IC50 ± SEM, Human MAO-B. It is filed as biochemical. Put shortly: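 Inhibition was measured with an Amplex Red monoamine oxidase assay, using human MAO-A and MAO-B produced recombinantly in baculovirus-infected insect cells. For rat MAO-B, liver mitochondria-enriched fractions from male Sprague Dawley rats served as enzyme source.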

The target in the next test is T5, human A3 AR (Homo sapiens, UniProt P0DMS8).
T5 construct: expressed in transfected cells; host or cells: CHO cells
T5 sequence (P0DMS8 1-318): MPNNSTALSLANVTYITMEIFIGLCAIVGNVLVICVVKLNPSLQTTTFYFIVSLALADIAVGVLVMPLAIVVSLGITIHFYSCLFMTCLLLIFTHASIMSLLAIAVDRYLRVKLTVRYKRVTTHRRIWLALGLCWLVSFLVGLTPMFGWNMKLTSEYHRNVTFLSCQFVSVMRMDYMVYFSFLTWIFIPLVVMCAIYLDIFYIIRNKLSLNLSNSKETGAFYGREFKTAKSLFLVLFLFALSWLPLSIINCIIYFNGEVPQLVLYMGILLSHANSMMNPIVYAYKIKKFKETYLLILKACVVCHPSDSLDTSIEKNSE
Description: Radioligand binding assay at human A3 AR vs. [^3H]PSB-11. As to conditions: for Ki: CHO cell membranes, n = 2 (n = 3 where marked a), read-out: Ki ± SEM, A3 vs. [^3H]PSB-11; for inhibition at 10 µM: at 10,000 nM, read-out: % inhibition of radioligand binding at indicated concentration, A3 vs. [^3H]PSB-11. Put shortly:
as §1

`CCn1c(=O)c2c(nc3n2CCN(Cc2ccccc2Br)C3)n(C)c1=O` [Compound 14a, 8-(2-bromobenzyl)-3-ethyl-1-methyl-6,7,8,9-tetrahydropyrazino[2,1-f]purine-2,4(1H,3H)-dione]: the Ki was 0.0417 ± 0.0083 µM on human A1 AR, 0.123 ± 0.034 µM at rat A1 AR, 0.408 ± 0.09 µM on rat A2A AR and > 10 µM at human A3 AR. In addition, the “selectivity for the human A1 vs. the human A2A AR” value on human A1 AR is recorded as > 10 fold. Besides, the inhibition at 10 µM was determined as 37% at recombinant human MAO-B and 36% on human A3 AR. In addition, the half-maximal inhibitory concentration (IC50) on recombinant human MAO-B is > 10 µM.

For the compound `CCn1c(=O)c2c(nc3n2CCN(Cc2cccc(Br)c2)C3)n(C)c1=O` [Compound 14b, 8-(3-bromobenzyl)-3-ethyl-1-methyl-6,7,8,9-tetrahydropyrazino[2,1-f]purine-2,4(1H,3H)-dione], the Ki on human A1 AR was 0.0707 ± 0.0123 µM; at rat A1 AR it was 0.0288 ± 0.0015 µM; on rat A2A AR it was 1.14 µM; on human A3 AR, > 10 µM. The figures for the inhibition at 10 µM at recombinant human MAO-B and at human A3 AR were 34% and 39%, respectively. Moreover, the IC50 at recombinant human MAO-B is > 10 µM.

Take `CCn1c(=O)c2c(nc3n2CCN(Cc2ccc(Br)cc2)C3)n(C)c1=O` [Compound 14c, 8-(4-bromobenzyl)-3-ethyl-1-methyl-6,7,8,9-tetrahydropyrazino[2,1-f]purine-2,4(1H,3H)-dione]: the inhibition constant Ki on human A1 AR was 1.35 µM; at rat A1 AR, 0.156 ± 0.021 µM; at rat A2A AR, > 1 µM; at human A3 AR it was 9.39 µM. In addition, the “% inhibition of radioligand binding at indicated concentration, A2A vs. [^3H]MSX-2” value (“% inhibition of radioligand binding” below) on rat A2A AR stood at 35%. Also, on recombinant human MAO-B, the 50% inhibitory concentration (IC50) came out at 1.63 µM.

With `CCn1c(=O)c2c(nc3n2CCN(Cc2ccccc2C(F)(F)F)C3)n(C)c1=O` [Compound 14d, 3-ethyl-1-methyl-8-(2-(trifluoromethyl)benzyl)-6,7,8,9-tetrahydropyrazino[2,1-f]purine-2,4(1H,3H)-dione], the Ki at human A1 AR was 0.244 ± 0.074 µM; on rat A1 AR it was 0.114 ± 0.015 µM; at rat A2A AR, > 1 µM; on human A3 AR it was 8.76 µM. The “% inhibition of radioligand binding” value on rat A2A AR is reported as 20%. Further, the inhibition at 10 µM on recombinant human MAO-B is 49%. In addition, on recombinant human MAO-B, the 50% inhibitory concentration (IC50) was ≥ 10 µM.

Regarding `CCn1c(=O)c2c(nc3n2CCN(Cc2cccc(C(F)(F)F)c2)C3)n(C)c1=O` [Compound 14e, 3-ethyl-1-methyl-8-(3-(trifluoromethyl)benzyl)-6,7,8,9-tetrahydropyrazino[2,1-f]purine-2,4(1H,3H)-dione], the inhibition constant (Ki) was 0.156 ± 0.049 µM at human A1 AR, 0.0491 ± 0.0062 µM on rat A1 AR, 0.708 ± 0.025 µM at rat A2A AR and > 10 µM on human A3 AR. In addition, the inhibition at 10 µM on recombinant human MAO-B is > 50%; on human A3 AR, 38%. In addition, the IC50 on recombinant human MAO-B is < 10 µM.

Take `CCn1c(=O)c2c(nc3n2CCN(Cc2cccc(F)c2)C3)n(C)c1=O` [Compound 14g, 3-ethyl-8-(3-fluorobenzyl)-1-methyl-6,7,8,9-tetrahydropyrazino[2,1-f]purine-2,4(1H,3H)-dione]: the inhibition constant (Ki) was 0.0853 ± 0.0055 µM on human A1 AR, 0.0594 ± 0.0077 µM on rat A1 AR, > 1 µM on rat A2A AR and > 10 µM at human A3 AR. In addition, the “% inhibition of radioligand binding” value on rat A2A AR came out at 18%. The inhibition at 10 µM at recombinant human MAO-B came out at 48%; at human A3 AR, 24%. In addition, the 50% inhibitory concentration (IC50) on recombinant human MAO-B was ≥ 10 µM.

Regarding `CCn1c(=O)c2c(nc3n2CCN(Cc2cc(Cl)ccc2Cl)C3)n(C)c1=O` [Compound 14j, 8-(2,5-dichlorobenzyl)-3-ethyl-1-dimethyl-6,7,8,9-tetrahydropyrazino[2,1-f]purine-2,4(1H,3H)-dione], the Ki on human A1 AR was 0.391 ± 0.077 µM; on rat A1 AR, 0.0369 ± 0.0061 µM; at rat A2A AR, 0.617 ± 0.114 µM; on human A3 AR, > 10 µM. The IC50 on recombinant human MAO-B turned out to be 3.98 µM. In addition, the inhibition at 10 µM on human A3 AR was found to be 42%.

On to `CCn1c(=O)c2c(nc3n2CCN(Cc2cccc(C(F)(F)F)c2F)C3)n(C)c1=O` [Compound 14l, 3-ethyl-8-(2-fluoro-3-(trifluoromethyl)benzyl)-1-methyl-6,7,8,9-tetrahydropyrazino[2,1-f]purine-2,4(1H,3H)-dione], for which the Ki on human A1 AR was 0.495 ± 0.08 µM; at rat A1 AR, 0.236 ± 0.057 µM; on rat A2A AR it was 0.667 ± 0.068 µM; on human A3 AR, > 10 µM. Besides, the inhibition at 10 µM on recombinant human MAO-B was determined as 65%; at human A3 AR, 29%. Besides, the IC50 on recombinant human MAO-B is < 10 µM.

For `CCn1c(=O)c2c(nc3n2CCN(Cc2cc(C(F)(F)F)ccc2Cl)C3)n(C)c1=O` [Compound 14m, 8-(2-chloro-5-(trifluoromethyl)benzyl)-3-ethyl-1-methyl-6,7,8,9-tetrahydropyrazino[2,1-f]purine-2,4(1H,3H)-dione], the inhibition constant (Ki) at human A1 AR is 0.0559 ± 0.0083 µM; at rat A1 AR it was 0.0762 ± 0.009 µM; at rat A2A AR, 0.592 ± 0.028 µM; on human A3 AR, > 10 µM. Also, the “selectivity for the human A1 vs. the human A2A AR” value at human A1 AR is reported as 16 fold. Besides, at recombinant human MAO-B, the half-inhibitory concentration (IC50) is 1.43 µM. Besides, the inhibition at 10 µM on human A3 AR was 35%.

As to `CCn1c(=O)c2c(nc3n2CCN(Cc2cc(Br)ccc2F)C3)n(C)c1=O` [Compound 14o, 8-(5-bromo-2-fluorobenzyl)-3-ethyl-1-methyl-6,7,8,9-tetrahydropyrazino[2,1-f]purine-2,4(1H,3H)-dione], the inhibitory constant (Ki) on human A1 AR is 0.116 ± 0.027 µM; on rat A1 AR it was 0.036 ± 0.0184 µM; at rat A2A AR, 0.88 ± 0.174 µM; at human A3 AR it was > 10 µM. For the same compound, at recombinant human MAO-B, the IC50 amounted to 3.07 µM. Besides, the inhibition at 10 µM at human A3 AR turned out to be 39%.

Turning to `CCn1c(=O)c2c(nc3n2CCN(Cc2cccc(C(F)(F)F)c2)C3)n(CC)c1=O` [Compound 15g, 1,3-diethyl-8-(3-(trifluoromethyl)benzyl)-6,7,8,9-tetrahydropyrazino[2,1-f]purine-2,4(1H,3H)-dione], the Ki is 0.0848 ± 0.0024 µM on human A1 AR, 0.03 ± 0.0057 µM on rat A1 AR, 1.03 µM on rat A2A AR and > 10 µM on human A3 AR. In addition, the inhibition at 10 µM was 10% at recombinant human MAO-B and 36% on human A3 AR. The IC50 at recombinant human MAO-B was > 10 µM.

For `CCn1c(=O)c2c(nc3n2CCN(Cc2cc(C(F)(F)F)ccc2F)C3)n(CC)c1=O` [Compound 15j, 1,3-diethyl-8-(2-fluoro-5-(trifluoromethyl)benzyl)-6,7,8,9-tetrahydropyrazino[2,1-f]purine-2,4(1H,3H)-dione], the inhibition constant (Ki) is 0.0394 ± 0.0074 µM at human A1 AR, 0.124 ± 0.021 µM at rat A1 AR, 0.6 ± 0.054 µM at rat A2A AR and > 10 µM at human A3 AR. The inhibition at 10 µM on recombinant human MAO-B amounted to 58%; on human A3 AR, 25%. In addition, the IC50 at recombinant human MAO-B was < 10 µM.

In general, Ki refers to a measure of affinity in units of concentration, obtained from inhibition or displacement. By IC50 is commonly meant the point on the concentration scale where inhibition reaches its midpoint.
